Residues, ends and D or L forms follow the SMILES beside them.
What was measured:
[1] = test system: white blood cells (WBC), especially neutrophils and macrophages, in bronchoalveolar fluid (BALF); design: method as in PMID 25632019; details: cited from earlier work
[2] = test system: male Wistar rats; assay: Paw-pressure test (Randall-Selitto test), PPT; assay type: in vivo, rat; details: for Analgesic activity (PPT) over time: 0.25 mg/kg i.p. in saline, measured every 10 min from 10th to 50th min, n = 8-10 per group, PPT in AU, mean ± S.E.M. (Figure 2)
Experimental: (§1) The experiments were carried out on male Wistar rats (180–200 g) kept under normal conditions at ambient room temperature (22 °C). The animals were divided into five experimental groups, each including 8–10 animals, and a control group (n = 10). All experimental procedures were carried out between 10:00 a.m. and 1:00 p.m. after having been approved by the Research Ethics Commission of the Medical University—Sofia.
(§2) The control group received 0.2 mL of saline intraperitoneally injected (i.p.), while the animals from each one of the experimental groups received 0.2 mL (0.25 mg/kg, i.p.) of one of the five newly synthesized analogs dissolved in saline.
(§3) Changes in the mechanical nociceptive thresholds (PPT) of experimental animals were measured by an analgesimeter. Pressure was applied to the hind paw, and the value (g) required to elicit a nociceptive response (i.e., a squeak or struggle) was taken as the mechanical nociceptive threshold. A cut-off value of 500 g was used to prevent damage to the paw.
(§4) Nociception was evaluated every 10 min from the 10th minute after the newly synthesized analog was administered until the 50th minute.
The results were statistically assessed by one-way analysis of variance followed by a Newman-Keuls post-hoc comparison test. Values are represented as mean ± S.E.M. Values of p < 0.05 were considered to indicate statistical significance.

[3] = test system: male Wistar rats; assay: Paw-pressure test after Naloxone or AM251 pretreatment; assay type: in vivo, rat; details: 10th to 50th min (Figure 3); for Analgesia (PPT) after AM251 pretreatment: peptide i.p. after AM251 (CB1R antagonist) pretreatment; for Analgesia (PPT) after Naloxone pretreatment: peptide i.p. after Naloxone (MOR antagonist) pretreatment
Experimental: as §1, §2, §3, §4
In order to estimate which type of receptor participates in the analgesic effects of the newly synthesized substances, pretreatments have been made with Naloxone—an antagonist with a high binding affinity for the MORs, clinically used to prevent fatal overdose consequences—and AM251—a CB1Rs’ antagonist.

| Compound | Reduction of total number of white blood cells and their accumulation in BALF in the lungs [1] [%] | Analgesic activity (PPT) over time [2] | also measured |
| --- | --- | --- | --- |
| TDIFELL | 54 |  |  |
| CC(C)[C@H](NC(=O)[C@@H](NC(=O)[C@H](CCC(=O)O)NC(=O)[C@@H](N)Cc1ccccc1)C(C)C)C(N)=O [BB3, H-Phe-Glu-Val-Val-NH2] (H-FEVV-NH2) |  | highest but short-lasting analgesic activity | Analgesic activity (PPT) vs BB11 at the 10th minute ([2]; 0.25 mg/kg i.p., 10th min, F = 92.35602, p < 0.00001): exceeded that of BB11 |
| CC(C)C[C@H](NC(=O)[C@H](CC(C)C)NC(=O)[C@H](CCC(=O)O)NC(=O)[C@@H](N)Cc1ccccc1)C(=O)O [BB11, H-Phe-Glu-Leu-Leu-OH, reference compound] (H-FELL-OH) | 51 | constantly increased PPT for the total time of the evaluation | Analgesia (PPT) after AM251 pretreatment [3]: completely abolished the analgesia; Analgesia (PPT) after Naloxone pretreatment [3]: completely abolished the analgesia |
| CCCC[C@H](NC(=O)[C@H](CCCC)NC(=O)[C@H](CCC(=O)O)NC(=O)[C@@H](N)Cc1ccccc1)C(N)=O [BB2, H-Phe-Glu-Nle-Nle-NH2] (HELM PEPTIDE1{F.E.[Nle].[Nle].[am]}$$$$V2.0) |  | fluctuating analgesia that did not reach the values of the parent compound |  |
| CC(C)C[C@H](NC(=O)[C@H](CC(C)C)NC(=O)[C@H](CCC(=O)O)NC(=O)[C@@H](N)Cc1ccccc1)C(N)=O [BB1, H-Phe-Glu-Leu-Leu-NH2] (H-FELL-NH2) |  | gradually increasing analgesic activity over time | Analgesic activity (PPT) vs parent compound BB11 at the end of the reported period ([2]; 0.25 mg/kg i.p., 50th min, F = 5.38217, p = 0.042776): exceeded that of the parent compound BB11; Analgesia (PPT) after AM251 pretreatment [3]: completely abolished the analgesia; Analgesia (PPT) after Naloxone pretreatment [3]: completely abolished the analgesia |
| TDIFELLK | 57 |  |  |
| H-Phe-Glu-Ile-Ile-NH2 [BB4, FELL analog with Ile at positions 3 and 4, C-terminal amide] |  | fluctuating analgesia that did not reach the values of the parent compound |  |
